Data as given in patent US11964949B2, “Substituted phenyloxazolidinones for antimicrobial therapy” (priority 2015, dated 2024).
≈ marks a conversion by molar mass, not a printed value. Like-named read-outs stand apart in the source and are kept apart here.

Experiments:
[1] = test system: mitochondrial protein synthesis (MPS) in H9C2 cells; test: In vitro assay for MPS inhibition (COX-1 / SDH-A ELISA in H9C2 cells); assay type: cell-based, rat; conditions: Rattus norvegicus, read-out: IC50 (μM) MPS inhibition
[2] = test system: Mycobacterium tuberculosis H37Rv; test: In vitro assay for antimicrobial susceptibility (microplate Alamar blue, MIC); assay type: cell-based; conditions: Mycobacterium tuberculosis, read-out: MIC (μg/mL) against H37Rv
[3] = 120 h, H9C2 cells, 5 days incubation
[4] = M. tuberculosis H37Rv, 7H9 broth, Alamar blue

Row | SMILES | IC50 [1, 3] [µM] | MIC [2, 4] [µg/mL] | IC50 ([1]; H9c2, 120 h) [µM] | MIC ([2]; H37RV) [µg/mL]
1 | CC(=O)NC[C@H]1CN(c2ccc(N3CC4(CSC4)C3)c(F)c2)C(=O)O1 [OTB-261, (S)—N-((3-(3-Fluoro-4-(2-thia-6-azaspiro[3.3]heptan-6-yl)phenyl)-2-oxo-oxazolidin-5-yl)methyl)acetamide] | 2 | 0.12 (≈ 0.328 µM) |  | 
2 | O=C1O[C@@H](CNc2ccon2)CN1c1cc(F)c(N2CC3(COC3)C2)c(F)c1 [OBD-061] | 29 | 0.8 (≈ 2.04 µM) |  | 
3 | COC(=O)NC[C@H]1CN(c2ccc(N3[C@@H]4CC[C@H]3CSC4)c(F)c2)C(=O)O1 [OTB-237, Methyl (((S)-3-(4-((1R,5S)-3-thia-8-azabicyclo[3.2.1]octan-8-yl)-3-fluorophenyl)-2-Oxo-oxazolidin-5-yl)methyl)carbamate] |  |  | 15 to 23 | 0.03 to 0.11 (≈ 0.0759 to 0.278 µM)
4 | O=C(NC[C@H]1CN(c2cc(F)c(N3CC4(C3)C[S+]([O-])C4)c(F)c2)C(=O)O1)C1CC1 [OTB-252] | 52 | 0.7 (≈ 1.65 µM) |  | 
5 | O=C1O[C@@H](Cn2nccn2)CN1c1ccc(N2CCC[S+]([O-])CC2)c(F)c1 (stereo partly drawn) [OTB-138, (5R)-5-((2H-1,2,3-Triazol-2-yl)methyl)-3-(3-fluoro-4-(1-oxido-1,4-thiazepan-4-yl)phenyl)oxazolidin-2-one] | > 100 | 7.57 (≈ 19.2 µM) |  | 
6 | CC(=O)NC[C@H]1CN(c2ccc(N3CC4(C3)C[S+]([O-])C4)c(F)c2)C(=O)O1 [OTB-523] | 4 | 0.5 (≈ 1.31 µM) |  | 
7 | CC(=O)NC[C@H]1CN(c2cc(F)c(N3C4CCC3COC4)c(F)c2)C(=O)O1 [OBD-051] |  |  | 6 | 0.6 (≈ 1.57 µM)
8 | CNC(=O)OC[C@H]1CN(c2cc(F)c(N3CC4(C3)C[S+]([O-])C4)c(F)c2)C(=O)O1 [OTB-516-4B] | > 100 |  |  | 4.7 (≈ 11.3 µM)
9 | O=C1O[C@@H](Cn2ccnn2)CN1c1ccc(N2CCC[S+]([O-])CC2)c(F)c1 (stereo partly drawn) [OTB-137, (5R)-5-((1H-1,2,3-Triazol-1-yl)methyl)-3-(3-fluoro-4-(1-oxido-1,4-thiazepan-4-yl)phenyl)oxazolidin-2-one] | 7.64 | 0.277 (≈ 0.704 µM) |  | 
10 | CCCC(=O)OC[C@H]1CN(c2ccc(N3CCC[S+]([O-])CC3)c(F)c2)C(=O)O1 (stereo partly drawn) [OTB-126, [(5R)-3-[3-Fluoro-4-(1-oxido-1,4-thiazepan-4-yl)phenyl)-2-oxo-oxazolidin-5-yl]methyl butyrate] | 35.6 | 0.847 (≈ 2.05 µM) |  | 
11 | CC(=O)NC[C@H]1CN(c2ccc(N3CCCSCCC3)c(F)c2)C(=O)O1 [OTB-114, (S)—N-((3-(3-fluoro-4-(1,5-thiazocan-5-yl)phenyl)-2-oxooxazolidin-5-yl)methyl)acetamide] | 28 to 29 | 0.05 to 0.11 (≈ 0.131 to 0.288 µM) |  | 
12 | O=C(NC[C@H]1CN(c2ccc(N3CCCSCCC3)c(F)c2)C(=O)O1)c1ccco1 [OTB-117, (S)—N-[[3-(3-Fluoro-4-(1,5-thiazocan-5-yl)phenyl)-2-oxo-oxazolidin-5-yl]methyl]furan-2-carboxamide] | 56.3 | 0.665 (≈ 1.53 µM) |  | 
13 | CCCCS(=O)(=O)NC[C@H]1CN(c2ccc(N3CCCSCCC3)c(F)c2)C(=O)O1 [OTB-120, (R)—N-[[3-(3-Fluoro-4-(1,5-thiazocan-5-yl)phenyl)-2-oxo-oxazolidin-5-yl]methyl]butane-1-sulfonamide] | 7.27 | 3.88 (≈ 8.44 µM) |  | 
14 | CCCC(=O)OC[C@H]1CN(c2ccc(N3CCCSCCC3)c(F)c2)C(=O)O1 [OTB-110, (R)-[3-[3-Fluoro-4-(1,5-thiazocan-5-yl)phenyl]-2-oxo-5-oxazolidinyl]methyl butyrate] | > 100 | 0.125 (≈ 0.304 µM) |  | 
15 | CC(=O)NC[C@H]1CN(c2ccc(N3CC4(COC4)C3)c(F)c2)C(=O)O1 [OTB-202, (S)—N-((3-(3-Fluoro-4-(2-oxa-6-azaspiro[3.3]heptan-6-yl)phenyl)-2-oxo-oxazolidin-5-yl)methyl)acetamide] | 17 to 29 | 0.6 to 1.2 (≈ 1.72 to 3.43 µM) |  | 
16 | NC[C@H]1CN(c2cc(F)c(N3C4CCC3CSC4)c(F)c2)C(=O)O1 [OBD-083, (5S)-3-(4-(3-thia-8-aza-bicyclo[3.2.1]octan-8-yl)-3,5-difluorophenyl)-5-(aminomethyl)oxazolidin-2-one] |  |  | 20 | 0.05 (≈ 0.141 µM)
17 | CCCC(=O)OC[C@H]1CN(c2ccc(N3CCCSCC3)c(F)c2)C(=O)O1 [OTB-108, (R)-[3-[3-Fluoro-4-(1,4-thiazepan-4-yl)phenyl]-2-oxo-5-oxazolidinyl]methyl butyrate] | > 100 | 0.125 (≈ 0.315 µM) |  | 
18 | O=C1O[C@@H](Cn2nccn2)CN1c1ccc(N2CC3(C2)C[S+]([O-])C3)c(F)c1 [OTB-260-5B] | > 100 | > 32 |  | 
19 | O=C1O[C@@H](Cn2ccnn2)CN1c1cc(F)c(N2CC3(C2)C[S+]([O-])C3)c(F)c1 [OTB-522] | 38 | 1 (≈ 2.44 µM) |  | 

Row | SMILES | IC50 [1, 3] [µM] | MIC [2, 4] [µg/mL] | IC50 ([1]; H9c2, 120 h) [µM] | MIC ([2]; H37RV) [µg/mL]
20 | CC(=O)NC[C@H]1CN(c2cc(F)c(N3[C@@H]4CC[C@H]3CSC4)c(F)c2)C(=O)O1 [OTB-510, N—(((S)-3-(4-((1R,5S)-3-Thia-8-aza-bicyclo[3.2.1]octan-8-yl)-3,5-difluorophenyl)-2-oxo-oxazolidin-5-yl)methyl)acetamide] |  |  | 3 to 7 | 0.03 to 0.22 (≈ 0.0755 to 0.554 µM)
21 | O=C(NC[C@H]1CN(c2cc(F)c(N3CC4CCC(C3)O4)c(F)c2)C(=O)O1)C1CC1 [OBD-252] | 32.3 | 0.47 (≈ 1.15 µM) |  | 
22 | O=C1O[C@@H](CNc2ccon2)CN1c1ccc(N2CC3(COC3)C2)c(F)c1 [OBD-056] | 17 | 1.9 (≈ 5.08 µM) |  | 
23 | O=C(NC[C@H]1CN(c2ccc(N3CC4(COC4)C3)c(F)c2)C(=O)O1)C1CC1 [OTB-238, (S)—N-((3-(3-Fluoro-4-(2-oxa-6-azaspiro[3.3]heptan-6-yl)phenyl)-2-oxo-oxazolidin-5-yl)methyl)cyclopropanecarboxamide] | 20 | 2 to 4 (≈ 5.33 to 10.7 µM) |  | 
24 | CCCC(=O)NC[C@H]1CN(c2ccc(N3CCCSCCC3)c(F)c2)C(=O)O1 [OBD-003, (S)—N-((3-(3-fluoro-4-(1,5-thiazocan-5-yl)phenyl)-2-oxooxazolidin-5-yl)methyl)buty ramide] | > 100 | 0.33 (≈ 0.806 µM) |  | 
25 | O=C1OC(Cn2ccnn2)CN1c1cc(F)c(N2CC3CCC(C2)O3)c(F)c1 (stereo not shown) [OBD-054, 5-((1H-1,2,3-triazol-1-yl)methyl)-3-(4-(8-oxa-3-aza-bicyclo[3.2.1]octan-3-yl)-3,5-difluorophenyl)oxazolidin-2-one] | 6 to 31 | 0.5 (≈ 1.28 µM) |  | 
26 | O=C(NC[C@H]1CN(c2cc(F)c(N3CC4(CSC4)C3)c(F)c2)C(=O)O1)C1CC1 [OTB-243, (S)—N-((3-(3,5-Difluoro-4-(2-thia-6-azaspiro[3.3]heptan-6-yl)phenyl)-2-oxo-oxazolidin-5-yl)methyl)cyclopropanecarboxamide] | 14 | 0.03 (≈ 0.0733 µM) |  | 
27 | O=C1O[C@@H](Cn2ccnn2)CN1c1ccc(N2CCCSCCC2)c(F)c1 [OBD-001, (R)-5-((1H-1,2,3-triazol-1-yl)methyl)-3-(3-fluoro-4-(1,5-thiazocan-5-yl)phenyl)oxazolidin-2-one] | 12 | 0.3 (≈ 0.766 µM) |  | 
28 | NC[C@H]1CN(c2ccc(N3CC4CCC(C3)O4)c(F)c2)C(=O)O1 [OBD-113, 3-(4-(8-oxa-3-aza-bicyclo[3.2.1]octan-3-yl)-3-fluorophenyl)-5-(aminomethyl)oxazolidin-2-one] | > 100 | 0.39 (≈ 1.21 µM) |  | 
29 | CC(C)(C)C(=O)NC[C@H]1CN(c2ccc(N3CCCSCC3)c(F)c2)C(=O)O1 [OTB-115, (S)—N-[[3-(3-Fluoro-4-(1,4-thiazepan-4-yl)phenyl)-2-oxo-oxazolidin-5-yl]methyl]pivalamide] | > 100 | 3.73 (≈ 9.12 µM) |  | 
30 | COC(=O)NC[C@H]1CN(c2cc(F)c(N3[C@@H]4CC[C@H]3CSC4)c(F)c2)C(=O)O1 [OTB-512, Methyl (((S)-3-(4-((1R,5S)-3-thia-8-azabicyclo[3.2.1]octan-8-yl)-3,5-difluorophenyl)-2-oxo-oxazolidin-5-yl)methyl)carbamate] |  |  | 42.5 | 0.063 (≈ 0.152 µM)
31 | O=C(NC[C@H]1CN(c2cc(F)c(N3CC4(COC4)C3)c(F)c2)C(=O)O1)C1CCC1 [OTB-240, (S)—N-((3-(3,5-Difluoro-4-(2-oxa-6-azaspiro[3.3]heptan-6-yl)phenyl)-2-oxo-oxazolidin-5-yl)methyl)cyclobutanecarboxamide] | 19 to 67 | 0.24 to 0.6 (≈ 0.589 to 1.47 µM) |  | 
32 | NC[C@H]1CN(c2ccc(N3CC4(COC4)C3)c(F)c2)C(=O)O1 [OBD-057] | 67 | 0.4 (≈ 1.3 µM) |  | 
33 | CCCC(=O)NC[C@H]1CN(c2cc(F)c(N3C4CCC3CSC4)c(F)c2)C(=O)O1 [OBD-029, N—(((S)-3-(4-(3-thia-8-aza-bicyclo[3.2.1]octan-8-yl)-3,5-difluorophenyl)-2-oxooxazolidin-5-yl)methyl)butyramide] |  |  | > 100 | 0.11 (≈ 0.259 µM)
34 | O=C1O[C@@H](CO)CN1c1ccc(N2CC3(CSC3)C2)c(F)c1 [OTB-260, (R)-3-(3-Fluoro-4-(2-thia-6-azaspiro[3.3]heptan-6-yl)phenyl)-5-(hydroxymethyl)oxazolidin-2-one] | 30 | 1.49 (≈ 4.59 µM) |  | 
35 | COC(=O)NC[C@H]1CN(c2cc(F)c(N3CC4(CSC4)C3)c(F)c2)C(=O)O1 [OTB-242, Methyl (S)-((3-(3,5-difluoro-4-(2-thia-6-azaspiro[3.3]heptan-6-yl)phenyl)-2-oxo-oxazolidin-5-yl)methyl)carbamate] | 23 to 71 | 0.02 to 0.06 (≈ 0.0501 to 0.15 µM) |  | 
36 | O=C(NC[C@H]1CN(c2cc(F)c(N3CCCSCC3)c(F)c2)C(=O)O1)C1CC1 [OTB-408] | 3.61 | 0.342 (≈ 0.831 µM) |  | 
37 | CS(=O)(=O)NC[C@H]1CN(c2cc(F)c(N3CC4(COC4)C3)c(F)c2)C(=O)O1 [OTB-232, (R)—N-((3-(3,5-Difluoro-4-(2-oxa-6-azaspiro[3.3]heptan-6-yl)phenyl)-2-oxo-oxazolidin-5-yl)methyl)methanesulfonamide] | > 100 | 1.5 to 4 (≈ 3.72 to 9.92 µM) |  | 
38 | CCCC(=O)NC[C@H]1CN(c2cc(F)c(N3CC4CCC(C3)O4)c(F)c2)C(=O)O1 [OBD-254] | 36 | 0.73 (≈ 1.78 µM) |  | 
